Measured values published in article PMC7961786, “Magic Peptide: Unique Properties of the LRR11 Peptide in the Activation of Leukotriene Synthesis in Human Neutrophils” (International Journal of Molecular Sciences, 2021).

B1: HMGB1: High-Mobility Group Box 1 (HMGB1) protein, a DAMP (protein, UniProt P09429 1-215, looked up)
High mobility group protein B1: MGKGDPKKPRGKMSSYAFFVQTCREEHKKKHPDASVNFSEFSKKCSERWKTMSAKEKGKFEDMAKADKARYEREMKTYIPPKGETKKKFKDPNAPKRPPSAFFLFCSEYRPKIKGEHPGLSIGDVAKKLGEMWNNTAADDKQPYEKKAAKLKEKYEKDIAAYRAKGKPDAAKKGVVKAEKSKKKKEEEEDEEDEEDEEEEEDEEDEDEEEDDDDE

Columns and labels:
[1] = test system: human neutrophils (PMNLs), 5-LOX product synthesis; experiment: 5-LOX metabolite synthesis in human neutrophils stimulated with opsonized S. typhimurium (HPLC); assay type: cell-based
Procedure: Figure 1 Effects of LRR11 and ODNs on the formation of LTB4 (A,B) and the sum of 5-LOX metabolites (ω-OH-LTB4, LTB4 and its isomers, and 5-HETE) (C) in human PMNLs. PMNLs (2 × 10^7) were incubated for 15 min at 37 °C without (black bars) or with 1 μM LRR11 (A, LRR11_first); then ODNs and LRR11 or LPS were added; various ways of adding ODN and LRR11 peptide are indicated. In control samples, Hanks’ solution was added instead of ODNs. After 20 min, 0.5 × 10^9 S. typhimurium bacterial cells were added for a further 15 min. The 5-LOX products were determined using HPLC. Values indicate mean ± SEM of five independent experiments performed in duplicate. * p < 0.05, ** p < 0.01, *** p < 0.005, compared with the control. # p < 0.05, ## p < 0.01 for pairs of data compared as indicated by two-way ANOVA followed by Tukey’s multiple comparison test.
Figure 3 Synthesis of the 5-LOX metabolites in PMNLs exposed to opsonized S. typhimurium bacteria in the presence of the RAGE antagonist FPS-ZM1. PMNLs (2 × 10^7) were incubated for 15 min at 37 °C without additives or with 0.15 µM FPS-ZM1, for the next 20 min the mixture was incubated with 1 µM ODNs without (black bars) or with 1 µM LRR11 (gray bars) before adding 5 × 10^8 S. typhimurium for 15 min. In control samples, Hanks’ solution was added instead of ODNs. The 5-LOX products were determined using HPLC. Graphical data are presented for LTB4 (A) or the sum of LTB4 and its isomers, ω-OH-LTB4 and 5-HETE, designed as Σ5LOX products (B).
Human neutrophils were isolated from freshly taken citrate-anticoagulated peripheral blood from healthy individuals using standard methods. Leukocyte-rich plasma was prepared by sedimentation of erythrocytes with 3% dextran T-500 at room temperature. For purification of granulocytes, centrifugation through Ficoll-Paque (density 1.077 g/mL) was used, followed by hypotonic lysis of the remaining erythrocytes. […] All methods were performed in accordance with the relevant instructions and regulations of the Ministry of Health of the Russian Federation and local legislation.
Bacteria (S. typhimurium IE 147 strain) obtained from the Collection of Gamaleya National Research Center of Epidemiology and Microbiology (Moscow, Russia) were grown in Luria–Bertani broth to a concentration of 1 × 10^9 colony-forming units (CFU)/mL. The bacteria were collected by centrifugation at 2000 g and opsonized immediately before the experiment for 30 min in 20% (v/v) fresh serum from the same donor whose blood was used to isolate neutrophils. Repeated centrifugation in Dulbecco’s solution was used to wash the bacteria.
The cell suspension (2 × 10^7 PMNLs in HBSS/HEPES, reaction volume of 6 mL) was cultured for 15 min in an incubator at 37 °C, 5% CO2. Then 1.0 µM ODN with or without 1.0 µM LRR11, or 2 µg/mL LPS, was added as indicated. After 20 min, the cells were stimulated with S. typhimurium (the ratio of bacteria to PMNLs was approximately 20:1) for the next 15 min [3]. The synthesis of 5-LOX metabolites was stopped by adding an equal volume of methanol at −20 °C with prostaglandin B2 as an internal standard. Samples were stored at −20 °C. The denatured cell suspension was centrifuged, and supernatants designated as water/methanol extracts.
To purify the water/methanol extracts, solid-phase extraction was used on Sep-Pak C18 cartridges (500 mg; Macherey-Nagel, Dueren, Germany), which were conditioned first with methanol, and then with water. Major 5-LOX metabolites were identified by comparing retention times with those of known compounds, as previously described.
Table S1. Effect of Chloroquine on 5-LOX product formation in PMNLs after ODN priming followed by the addition
of opsonized S. typhimurium bacteria.

RAGE = settings: ref [53]; cited from earlier work
Source text: Most likely, CpG-ODN can serve as a linker between various receptor molecules of neutrophils. We hypothesize that some receptors on the cell surface have a multivalent ability to bind a broad spectrum of ligands, including ODNs, and that the stimulatory action of LRR11 on the CpG-ODNs may be related to cooperation with other receptors on the neutrophil surface.

5′-biotinylated B-CpG = experiment: TSM acoustic biosensor, peptide binding to immobilized B-CpG
Source text: To characterize the interaction of the studied synthetic ODNs with the LRR11 peptide, we applied the thickness shear mode (TSM) acoustic biosensor method, which is based on the investigation of ultrasonic waves in piezoelectric materials such as AT-cut quartz. This approach involved immobilizing a 5′-biotinylated ODN on the surface of TSM transducer covered by NeutrAvidin and then adding the LRR11 peptide. An unrelated peptide (URP) with a random primary structure ([…]) was used as a negative control. The measurement procedure was divided into several steps, in which each immobilization stage was followed by washing with an appropriate buffer solution; when peptide solutions at different concentrations (from 1 to 100 nM) were added to the surface-modified TSM transducer, a wash with Hanks buffer was used before increasing the peptide concentration.
Based on Langmuir isotherm Equation (1), (1) Δfcc=Δfsmaxc/KD+c where Δfs(c) is the frequency change at a certain peptide concentration under equilibrium conditions, (Δfs)max is the maximum frequency change, c is the peptide concentration, and KD is the equilibrium constant of dissociation, we estimated the (Δfs)max and KD values for binding of the LRR11 peptide to C-CpG and B-CpG (Table 3).
Eight MHz AT-cut piezoelectric quartz crystal transducer was obtained from CH Instruments, Austin, TX, USA. The transducer was covered on both sides with thin layers of gold that served as electrodes (working area 0.2 cm^2). Prior ODNs immobilization, the crystal was carefully cleaned with basic Piranha solution (29% NH3, 30% H2O and H2O2 with volumetric 1:5:1 ratio, respectively) for 25 min. After the thorough cleaning, the crystal was positioned between two silicon O-rings in a flow-through cell. The analyte was injected into the cell using a Genie Plus syringe pump (Kent Scientific, Torrington, CT, USA) at a flow rate of 50 μL/min. Each solution was applied until the resonance frequency stabilized. The surface of the transducer was first washed with deionized water, and then 125 μg/mL NeutrAvidin (WWR International GmbH, Vienna, Austria) solution in water was applied. Approximately 15 min were required to stabilize the signal at a constant NeutrAvidin flow rate. This was followed by washing with water to rinse out all non-chemisorbed NeutrAvidin molecules. Immobilization of ODN on the gold surface of the crystals is accomplished using avidin–biotin interactions. A 1 μM 5′-biotinylated ODN solution was injected over the neutravidin-modified surface and subsequently the crystal was washed again with water. The system was then equilibrated using Hanks buffer solution. This buffer was suitable for studying LRR11–ODN binding. Then LRR11 was used at concentrations of 1, 5, 10, 50 and 100 nM […] in Hanks buffer. After each addition of LRR11, the sensor surface was washed with Hanks buffer and LRR11 with the higher concentration was added. All binding experiments were carried out at room temperature. Buffer and sample solutions were introduced in a flow-through format. A network analyzer 8712ES (Agilent Technologies, Santa Clara, CA, USA) was used to measure the impedance properties of the sensor and determine fS and Rm.

[2] = test system: human monocytes, leukotriene production; settings: RAGE-dependent pathway; ref [55]; cited from earlier work
Source text: (§1) RAGE is shown to bind molecules, known as damage-associated molecular patterns (DAMPs), released by cells that die or are under conditions of inflammation.

[3] = test system: vascular smooth muscle cells; settings: ref [56]; cited from earlier work
Source text: as §1

Row | Molecule | effect on 5-LOX activity / leukotriene synthesis ([1]; ODN alone, 1 µM, 20 min, then opsonized S. typhimurium 15 min, Figure 1, five independent experiments in duplicate) | Σ 5-LOX metabolites ([1]; Table S1, 2×10^7 PMNLs, 15 min at 37 °C without or with 5 µM Chloroquine, then ODN, after 20 min 0.5×10^9 opsonized S. typhimurium for 15 min, mean ± SEM, three independent experiments) [ng/107 PMNLs] | degradation of RAGE receptor after RAGE binding (RAGE) | KA (5′-biotinylated B-CpG; LRR11-B-CpG complex, KA = 1/KD) [nM⁻¹] | −(Δfs)max (5′-biotinylated B-CpG; LRR11 to immobilized B-CpG, Langmuir fit, Hanks buffer, room temperature, LRR11 1-100 nM, three independent experiments) [Hz] | leukotriene production in human monocytes [2] | RAGE expression / LTB4 production in vascular smooth muscle cells [3]
1 | 5′-tcgtcgttttgtcgttttgtcgtt-3′ [B-CpG] | increased leukotriene synthesis | 43.9 ± 4.1 | promoted rapid lysosomal degradation of the receptor | 0.018 ± 0.006 | 26.6 ± 3.8 | – | –
2 | B1 | – | – | – | – | – | induce leukotriene production in human monocytes through a RAGE-dependent pathway | enhanced RAGE expression along with an increase in LTB4 production
